According to US20230085307A1, “PYRIDAZINONE COMPOUND AND HERBICIDE” (NISSAN CHEMICAL CORPORATION, priority 2019, published 2023):

What follows are compounds tested on false cleavers (assay: Test Example 5: herbicidal effect by foliage application, plastic box (Table 20, symbol Q)). Settings: foliage application, 266 g/ha, 3 weeks after application.
Format: in vivo, false cleavers (Galium spurium)
In short: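 Plants sown in sterilized diluvial soil and grown 14 days in a greenhouse at 25° C to 30° C, then sprayed on the foliage with the compound's emulsion diluted in water to a predetermined herbicide amount. Injury to weeds and crops scored three weeks after application on a visual rating scale.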

SMILES	effect on false cleavers (Q)
CCCC(=O)Oc1c(C)nn(C)c(=O)c1-c1c(-c2ccccc2OCC)sc2ccc(F)cc12 [2-029]	4 (Herbicidal rate of 70% or more and less than 90%)

Same assay, conditions: foliage application, 320 g/ha, 3 weeks after application

SMILES	effect on false cleavers (Q)
COc1ccc(-c2sc3ccc(F)cc3c2-c2c(O)c(C)nn(C)c2=O)cc1 [2-026]	4 (Herbicidal rate of 70% or more and less than 90%)
Cc1nn(C)c(=O)c(-c2c(-c3ccc(OC(C)C)cc3)sc3ccc(F)cc23)c1O [2-034]	4 (Herbicidal rate of 70% or more and less than 90%)
CCCCOc1ccc(-c2sc3ccc(F)cc3c2-c2c(O)c(C)nn(C)c2=O)cc1 [2-036]	4 (Herbicidal rate of 70% or more and less than 90%)

Same assay, conditions: foliage application, 320 g/ha, evaluated three weeks after application

SMILES	herbicidal effect on Q: false cleavers
CON=C(C)c1ccc(-c2sc3ccc(F)cc3c2-c2c(O)c(C)nn(C)c2=O)cc1 [2-079]	5 (Herbicidal rate of 90% or more (almost completely withered))
CCOc1cc(F)ccc1-c1sc2ccc(F)cc2c1-c1c(O)c(C)nn(C)c1=O [2-084]	5 (Herbicidal rate of 90% or more (almost completely withered))
CCCC(=O)Oc1c(C)nn(C)c(=O)c1-c1c(-c2ccc(F)cc2OCC)sc2ccc(F)cc12 [2-085]	5 (Herbicidal rate of 90% or more (almost completely withered))
Cc1nn(C)c(=O)c(-c2c(-c3ccc4c(c3)OCCO4)sc3ccc(F)cc23)c1O [2-092]	4 (Herbicidal rate of 70% or more and less than 90%)

Same assay, conditions: foliage application, 320 g/ha, three weeks after application

SMILES	herbicidal effect grade, Q: false cleavers
CCCOc1ccccc1-c1sc2ccccc2c1-c1c(O)c(C)nn(C)c1=O [1-015]	5 (Herbicidal rate of 90% or more (almost completely withered))
CCCCCOc1ccc(-c2sc3ccccc3c2-c2c(O)c(C)nn(C)c2=O)cc1 [1-026]	4 (Herbicidal rate of 70% or more and less than 90%)
Cc1nn(C)c(=O)c(-c2c(-c3ccccc3OC(F)(F)F)sc3ccccc23)c1O [1-030]	5 (Herbicidal rate of 90% or more (almost completely withered))
CC(=O)c1ccc(-c2sc3ccccc3c2-c2c(O)c(C)nn(C)c2=O)cc1 [1-041]	4 (Herbicidal rate of 70% or more and less than 90%)
CCCC(=O)Oc1c(C)nn(C)c(=O)c1-c1c(-c2ccc(C(C)=NOC)cc2)sc2ccccc12 [1-044]	3 (Herbicidal rate of 40% or more and less than 70%)
Cc1cc(-c2sc3ccccc3c2-c2c(O)c(C)nn(C)c2=O)ccc1F [1-051]	0 (Herbicidal rate of 5% or less (almost no effect))
CCOc1cc(F)ccc1-c1sc2ccccc2c1-c1c(O)c(C)nn(C)c1=O [1-061]	5 (Herbicidal rate of 90% or more (almost completely withered))

Same assay, conditions: foliage application, AAH 320 g/ha, evaluated three weeks after application

SMILES	Q: false cleavers, herbicidal effect (criteria 0-5)
COCC(=O)Oc1c(C)nn(C)c(=O)c1-c1c(-c2ccc(OC(F)F)cc2)sc2ccc(F)cc12 [2-283]	5 (Herbicidal rate of 90% or more (almost completely withered))
Cc1nn(C)c(=O)c(-c2c(-c3ccc(OC(F)F)cc3)sc3ccc(F)cc23)c1OC(=O)OCCCl [2-293]	5 (Herbicidal rate of 90% or more (almost completely withered))

Same assay, conditions: foliage application, AAH 320 g/ha, three weeks after application

SMILES	Q: false cleavers, herbicidal effect
COC(=O)Oc1c(C)nn(C)c(=O)c1-c1c(-c2ccc3c(c2)OCCO3)sc2ccccc12 [1-091]	4 (Herbicidal rate of 70% or more and less than 90%)
Cc1nn(C)c(=O)c(-c2c(-c3ccc4c(c3)OCCO4)sc3ccccc23)c1OC(=O)SC(C)(C)C [1-092]	0 (Herbicidal rate of 5% or less (almost no effect))
Cc1nn(C)c(=O)c(-c2c(-c3ccc4c(c3)CCO4)sc3ccccc23)c1O [1-101]	3 (Herbicidal rate of 40% or more and less than 70%)
CCCC(=O)Oc1c(C)nn(C)c(=O)c1-c1c(-c2ccc3c(c2)CCO3)sc2ccccc12 [1-102]	1 (Herbicidal rate of 5% or more and less than 20%)
COCc1ccc(-c2sc3ccccc3c2-c2c(O)c(C)nn(C)c2=O)cc1 [1-131]	4 (Herbicidal rate of 70% or more and less than 90%)
